Source: patent US10004826B2, “Implantable human liver tissue constructs and uses thereof” (Massachusetts Institute of Technology, priority 2010, dated 2018)

Legend:
[1] = tested on: encapsulated human hepatocytes; experiment: Albumin secretion and urea synthesis of HEP/FIB encapsulated in peptide-derivatized PEG-DA hydrogel; type: cell-based; conditions: 10 μmol/ml peptide; vs RGES controls; one week in vitro
Experimental: Liver mimetics were fabricated using a hydrogel polymerization apparatus. In brief, cellular pre-polymer solution was loaded into a 20-mm diameter, […] silicone spacer, and the solution exposed to UV light from a spot curing system with collimating lens (320-390 nm, 10 mW/cm^2, 20-30 s; EXFO Lite). […] Acrylate-PEG-peptide monomers were synthesized by conjugating RGDS or RGES to acrylate-PEG-N-hydroxysuccinimide (3.4 kDa) at a 1:1 molar ratio in 50 mM sodium bicarbonate buffer (pH 8.5). Reactions were dialyzed overnight against […] MWCO cellulose ester membrane and lyophilized for long-term storage at −80° C. Hepatocyte/fibroblast co-cultures were encapsulated at a final concentration of 8×10^6 hepatocytes/ml pre-polymer, in the absence or presence of an additional 6×10^6 liver endothelial cells (LEC)/ml of pre-polymer.
Human albumin in serum or media samples was quantified by enzyme-linked immunosorbant assay performed using goat anti-human albumin antibody, horseradish peroxidase detection, and 3,3′,5,5′-tetramethylbenzidine development. Urea was measured by acid- and heat-catalyzed detection of diacetylmonoxime conversion to a colorimetric product. Alanine aminotransfer (ALT) and aspartate aminotransfer (AST) enzymatic levels were detected with clinical kits based on colorimetric endpoint methods. […]

Mouse livers = conditions: in vivo
Experimental: Serum samples acquired at 4 h following APAP exposure were assayed for the liver damage marker alanine transaminase (ALT) using an endpoint colorimetric enzymatic assay.
Serum samples acquired at 4 h following APAP exposure were assayed for the liver damage markers aspartame transaminase (AST) using an endpoint colorimetric enzymatic assay. Shown are individual data points for n=3 mice per group, where black bars represent average values for each group.
Explanted livers were sectioned and stained with H&E. Shown are representative sections.
At day 9 of implantation, mice were fed by oral gavage with 500 ml drinking water or 500 ml acetaminophen (APAP, 250 mg/kg) in water. Mice were fasted for 16 h prior to APAP administration. Following APAP exposure, blood was collected by retro-orbital draw at 4 h. Blood samples were acquired by retro-orbital draw at 4 h following APAP exposure, serum separated, and serum analyzed for enzymatic activity of alanine transaminase (ALT) and aspartame transaminase (AST), non-species specific markers of liver damage (Teco Diagnostics). Engineered liver mimetics and mouse livers were extracted for biochemical and histological analysis. Mouse livers were paraffin-embedded, sectioned with 5 um slices, de-paraffinized and stained for hematoxylin and eosin (H&E).

human CYP2D6 = experiment: Debrisoquine metabolism and pharmacokinetics in humanized C57/BL6 mice; conditions: debrisoquine 2 mg/kg oral gavage
Experimental: Humanized mice established on a C57/Bl6 mouse background were administered debrisoquine at 2 mg/kg by oral gavage. Following drug administration, mice were bled by retro-orbital draw at specific timepoints, and drug concentration quantified by LC/MS/MS. […] Error bars are SEM for n=3 mice per group.
(§1) Mice administered 80 mg/kg of coumarin injected i.p. or 2 mg/kg debrisoquine (DB) gavaged p.o were subjected to retro-orbital draw at 5, 10 15, 30, 60, 90, and 120 minutes after drug administration, and terminal urine collection at 4 h. From ˜100 ml blood collections, serum was separated by centrifugation at 1200 g for 10 minutes and stored at −20° C. […] The area under the curve from time 0 until the time of the last measurable plasma concentration (AUC0-t) was calculated using the linear trapezoidal. Peak concentration (Cmax) and time to reach maximum concentration (tmax) values were obtained directly from the plasma concentration-time profile. Metabolic ratios were determined by dividing the AUC0-t of metabolite by the AUC0-t of the parent drug.
(§2) Following coumarin or debrisoquine exposure, serum or urine was sampled for quantitation of drug parent and metabolite concentrations by liquid chromatography (LC)/MS/MS.

[2] = tested on: luciferase-expressing Plasmodium berghei (Pb-luc); conditions: Huh7.5 and HC04 hepatoma cells in alginate
Experimental: Primary adult human hepatocytes and J2 stromal fibroblasts were seeded in lyophilized alginate sponges and infected with luciferase-expressing Plasmodium berghei (Pb-luc) three days post-seeding. Bioluminescence imaging was performed two days post-infection (FIG. 11a).
Next, the response of Pb-luc-infected hepatoma aggregates in alginate to primaquine treatment was tested.

human CYP2A6 = molecular target: T1, human CYP2A6 (Homo sapiens, UniProt P11509); conditions: athymic nude, mouse, in vivo, ip, 80 mg/kg
T1 sequence (P11509 1-494): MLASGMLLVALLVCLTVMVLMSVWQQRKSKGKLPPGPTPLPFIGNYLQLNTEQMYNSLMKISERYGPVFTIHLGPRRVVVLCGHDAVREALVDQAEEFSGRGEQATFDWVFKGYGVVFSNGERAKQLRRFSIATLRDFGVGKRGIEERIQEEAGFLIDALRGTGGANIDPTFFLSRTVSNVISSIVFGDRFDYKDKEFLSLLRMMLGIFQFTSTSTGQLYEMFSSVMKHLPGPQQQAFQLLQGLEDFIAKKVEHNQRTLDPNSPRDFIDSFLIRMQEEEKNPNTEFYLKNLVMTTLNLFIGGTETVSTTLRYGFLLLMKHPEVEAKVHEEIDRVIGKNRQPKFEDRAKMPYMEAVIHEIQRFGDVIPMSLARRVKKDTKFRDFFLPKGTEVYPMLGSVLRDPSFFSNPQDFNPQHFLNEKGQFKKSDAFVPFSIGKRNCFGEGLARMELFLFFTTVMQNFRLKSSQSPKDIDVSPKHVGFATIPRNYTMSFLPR
Experimental: Humanized mice established on a nude mouse background were administered coumarin at 80 mg/kg by intraperitoneal injection. Following drug administration, mice were bled by retro-orbital draw at specific timepoints, and drug concentration quantified by LC/MS/MS. Open circles represent humanized mice, and closed circles represent wild-type (no implant) mice. Error bars are SEM for n=3 mice per group.
as §1, §2

hepatitis C virus = conditions: uPA+/+/SCID model; cited from earlier work
human liver mimetics = experiment: Human hepatotoxicity in humanized mice by serum human albumin ELISA; type: in vivo, mouse; conditions: inducers daily at days 4-7 post-implantation; OME oral gavage, RIF i.p.; blood days 2, 5, 7
Description: Error bars are SEM for n=3 or greater.
Blood was collected by retro-orbital draw on days 2, 5 and 7 days after implantation for drug-treated mice and control mice with acellular hydrogel intraperitoneal implantations. Red bars mark average human serum albumin levels at each timepoint for n=3-6 mice per condition.
Human albumin in serum or media samples was quantified by enzyme-linked immunosorbant assay performed using goat anti-human albumin antibody, horseradish peroxidase detection, and 3,3′,5,5′-tetramethylbenzidine development. Urea was measured by acid- and heat-catalyzed detection of diacetylmonoxime conversion to a colorimetric product. Alanine aminotransfer (ALT) and aspartate aminotransfer (AST) enzymatic levels were detected with clinical kits based on colorimetric endpoint methods.

RGDS
Improvement of encapsulated HEP/FIB synthetic and secretory functions [1]: two- to three-fold

CC(=O)Nc1ccc(O)cc1 [APAP, acetaminophen]
Mouse liver injury by serum liver function enzyme tests and histopathology (Mouse livers): appeared uninjured

N=C(N)N1Cc2ccccc2C(O)C1 (centres unmarked) [4-OHDB, 4-hydroxydebrisoquine]
Metabolic ratio (metabolite exposure over parent drug exposure, AUC), 4-OHDB/debrisoquine (human CYP2D6): > 0.1

CO[C@H]1/C=C/O[C@@]2(C)Oc3c(C)c(O)c4c(O)c(c(/C=N/N5CCN(C)CC5)c(O)c4c3C2=O)NC(=O)/C(C)=C\C=C\[C@H](C)[C@H](O)[C@@H](C)[C@@H](O)[C@@H](C)[C@H](OC(C)=O)[C@@H]1C [RIF, rifampin]
Mouse liver injury by serum liver function enzyme tests and histopathology (Mouse livers): appeared uninjured

COc1cc(NC(C)CCCN)c2ncccc2c1 (centres unmarked) [primaquine]
Inhibition of parasite development (BLI quantification) [2]: greater effect on inhibiting parasite development in Huh7.5 than in HC04

O=c1ccc2ccc(O)cc2o1 [7-HC, 7-hydroxycoumarin]
Metabolic ratio (metabolite exposure over parent drug exposure, AUC), 7-HC/coumarin (human CYP2A6): > 0.1

COc1ccc2c(O[C@@H]3C[C@H]4C(=O)N[C@]5(C(=O)O)C[C@H]5/C=C\CCCCC[C@H](NC(=O)OC5CCCC5)C(=O)N4C3)cc(-c3csc(NC(C)C)n3)nc2c1 [BILN-2061]
Response of HCV infection to anti-HCV therapy (hepatitis C virus): responding

COc1ccc2[nH]c([S+]([O-])Cc3ncc(C)c(OC)c3C)nc2c1 (centres unmarked) [OME, omeprazole]
Human serum albumin from humanized mice over time (human liver mimetics): not affected
